Reference: ChEMBL document CHEMBL3137667, “[Drug-induced liver injury; fourteenth updated edition of the bibliographic database of liver injuries and related drugs]” (Gastroenterol Clin Biol, 2004)

Assays:
[1] = Times to onset, minimal and maximal, observed in the indexed observations. [column 'DELAI' in source]; conditions: human
[2] = human, serum
[3] = human
[4] = human; remark: listed apart in the source
[5] = human; remark: listed apart in the source
[6] = Highest frequency of moderate liver toxicity observed during clinical trials, expressed as a percentage. [column '% BIOL' in source]; conditions: human
[7] = human; remark: listed apart in the source
[8] = human; remark: listed apart in the source
[9] = human; remark: listed apart in the source
[10] = human; remark: listed apart in the source
[11] = Highest frequency of acute liver toxicity observed during clinical trials, expressed as a percentage. [column '% AIGUE' in source]; conditions: human
[12] = human, serum, 4383 h
[13] = human; remark: listed apart in the source
[14] = human, serum; remark: listed apart in the source
[15] = human; remark: listed apart in the source
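Wherever Hepatotoxicity (association with vascular disease) is given: count of indexed literature references reporting vascular liver injury in humans, e.g. peliosis hepatitis, hepatic veno-occlusive disease or Budd-Chiari syndrome.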
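Wherever Hepatotoxicity (benign tumour) is given: value is a count of indexed literature references citing a benign tumour confirmed by histopathology.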
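Wherever Hepatotoxicity (choleostasis) is given: human cholestatic liver injury, shown by histopathology or by peak ALT or AST elevation over alkaline phosphatase ratio below 2, value counts indexed literature reports.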
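Wherever Hepatotoxicity (chronic liver disease) is given: chronic liver injury confirmed by histopathology or persistently raised serum aminotransferase activity beyond 6 months, value given as the count of indexed literature references.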
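Wherever Hepatotoxicity (cirrhosis) is given: value is a count of indexed literature references reporting cirrhosis confirmed by histopathology.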
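Wherever Hepatotoxicity (cytolytic) is given: human cytolytic liver injury, shown by histopathology or by a ratio above 5 of peak ALT or AST elevation to alkaline phosphatase elevation, value counts indexed references.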
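Wherever Hepatotoxicity (granulomatous hepatitis) is given: value is a count of indexed literature references reporting granulomatous liver disease confirmed by histopathology.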
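Wherever Hepatotoxicity (malignant tumour) is given: malignant tumour confirmed by histopathology, value gives the count of indexed literature references reporting it.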
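Wherever Hepatotoxicity (severe hepatitis) is given: human clinical data: severe hepatitis, meaning potentially life-threatening liver failure or clinically observed cases, the value counts how many indexed literature references report it.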
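Wherever Hepatotoxicity (steatosis) is given: steatosis confirmed by histopathology, value is the count of indexed references.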

Row | Compound | Hepatotoxicity (time to onset) [1] | Hepatotoxicity (acute) [2] | Hepatotoxicity (steatosis) [3] | Hepatotoxicity (granulomatous hepatitis) [4] | Hepatotoxicity (cytolytic) [5] | Hepatotoxicity (moderate) [6] | Hepatotoxicity (benign tumour) [7] | Hepatotoxicity (malignant tumour) [8] | Hepatotoxicity (severe hepatitis) [9] | Hepatotoxicity (cirrhosis) [10] | Hepatotoxicity (acute) [11] | Hepatotoxicity (chronic liver disease) [12] | Hepatotoxicity (association with vascular disease) [13] | Hepatotoxicity (moderate) [14] | Hepatotoxicity (choleostasis) [15]
1 | NC(=O)CC[C@@H]1NC(=O)[C@H](Cc2ccccc2)NC(=O)[C@H](Cc2ccc(O)cc2)NC(=O)CCSSC[C@@H](C(=O)N2CCC[C@H]2C(=O)N[C@H](CCCN=C(N)N)C(=O)NCC(N)=O)NC(=O)[C@H](CC(N)=O)NC1=O [DESMOPRESSIN] | 5 days - 4 weeks | 0 | 0 | 0 | 0 | 20% | 0 | 0 | 0 | 0 | 0% | 0 | 0 | 2 | 0
2 | CCC1=C[C@@H]2CN(C1)Cc1c([nH]c3ccccc13)[C@@](C(=O)OC)(c1cc3c(cc1OC)N(C)[C@H]1[C@@](O)(C(=O)OC)[C@H](OC(C)=O)[C@]4(CC)C=CCN5CC[C@]31[C@@H]54)C2 [VINORELBINE] | 2 days - 10 days | 3 | 0 | 0 | 2 | 24.1% | 0 | 0 | 1 | 0 | 6% | 0 | 0 | 6 | 0
3 | CC(=O)[C@@]1(O)CC[C@H]2[C@@H]3C=C(C)C4=CC(=O)CC[C@@H]4[C@H]3CC[C@@]21C [NOMEGESTROL] | 4 months - 5 months | 2 | 0 | 0 | 2 | 0% | 0 | 0 | 2 | 0 | 0% | 0 | 0 | 0 | 0
4 | COCCOC(=O)C1=C(C)NC(C)=C(C(=O)OC(C)C)C1c1cccc([N+](=O)[O-])c1 (stereo not given) [NIMODIPINE] | 6 months | 3 | 0 | 0 | 1 | 2.7% | 0 | 0 | 0 | 0 | 0.7% | 0 | 0 | 5 | 0
5 | Cc1ccc2c(c1)C(N1CCN(C)CC1)=Nc1ccccc1S2 [METIAPINE] | 2 weeks - 2 months | 1 | 0 | 0 | 1 | 0% | 0 | 0 | 0 | 0 | 0% | 0 | 0 | 2 | 0
6 | C=CCC1(CC(C)C)C(=O)NC(=O)NC1=O [BUTALBITAL] | 2.5 months | 1 | 0 | 0 | 1 | 0% | 0 | 0 | 0 | 0 | 0% | 0 | 0 | 0 | 0
7 | CC(C)NCC(O)COc1ccc(CC(N)=O)cc1 (stereo not given) [ATENOLOL] | 2 days - 9 months | 2 | 1 | 0 | 1 | 10% | 0 | 0 | 0 | 0 | 0% | 0 | 0 | 1 | 1
8 | O=[N+]([O-])c1cc(Cl)cc(-c2cc(Cl)cc([N+](=O)[O-])c2O)c1O [NICLOFOLAN] | 1 week | 1 | 0 | 0 | 0 | 0% | 0 | 0 | 0 | 0 | 0% | 0 | 0 | 0 | 1
9 | O=c1[nH]c(=O)n([C@H]2C[C@H](O)[C@@H](CO)O2)cc1I [IDOXURIDINE] | 1 week - 2 weeks | 1 | 0 | 0 | 0 | 3.6% | 0 | 0 | 0 | 0 | 0% | 0 | 0 | 3 | 1
10 | Cc1cc(C(=O)NNCc2ccccc2)no1 [ISOCARBOXAZID] | 1 month - 4 months | 4 | 0 | 0 | 4 | 0% | 0 | 0 | 1 | 0 | 0% | 0 | 0 | 1 | 2
11 | Nc1ccn([C@@H]2O[C@H](CO)[C@@H](O)C2(F)F)c(=O)n1 [GEMCITABINE] | 1 cure - 7 cures | 12 | 0 | 0 | 6 | 90.9% | 0 | 0 | 2 | 0 | 45.5% | 0 | 2 | 13 | 3
